Experimental data reported in US9428551B2, “Antimicrobial peptides” (priority 2009, dated 2016).

How the values were obtained:
S. saprophyticus = test: MIC by micro-dilution (BSAC); format: cell-based
S. epidermidis 156 = test: viability, optical density and Gram staining after addition of peptide; format: cell-based
[1] = system: clinical biofilm forming strains of CNS Staphylococci species associated with prosthetic joint infections; test: passaging in sub-inhibitory concentrations; format: cell-based; details: for MIC after passaging: sub-inhibitory concentrations
S. epidermidis = test: MIC by micro-dilution (BSAC); format: cell-based;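 further: MIC in µg/ml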
Bacillus subtillis = test: MIC by micro-dilution (BSAC); format: cell-based
Listeria monocytogenes = test: MIC by micro-dilution (BSAC); format: cell-based
[2] = system: reference strain RP62a, gentamicin resistant clinical isolate 53 and gentamicin sensitive isolate 156; test: single-step (spontaneous) mutation tests; format: cell-based, S. epidermidis; details: two, four and eight times the MIC; strains RP62a, 53 and 156; no evidence of mutation
S. epidermidis s42 [3] = test: ATP release; format: cell-based; details: 10×MIC
[4] = system: Vancomycin resistant Enterococcus faecalis; test: MIC by micro-dilution (BSAC); format: cell-based
Propionibacterium acnes = test: spot on lawn method; format: cell-based; details: purified preparations of NI01, spot on lawn method
strain 156 biofilm = test: biofilm formation on peptide-coated polyethylene beads; format: cell-based, Staphylococcus epidermidis; details: beads submerged in semi-pure peptide 2 hours, inoculum 3×10^8 cfu/ml of strain 156, p=0.000
Bacillus cereus = test: MIC by micro-dilution (BSAC); format: cell-based
Streptococcus mutans = test: MIC by micro-dilution (BSAC); format: cell-based;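 further: MIC in µg/ml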
S. hominis = test: MIC by micro-dilution (BSAC); format: cell-based
S. epidermidis s42 [5] = test: membrane potential, DiSC3(5) assay; format: cell-based; details: all concentrations assessed; levels exceeded positive control nisin 10×MIC
Source text: (§1) Results are expressed as % of positive control and that NI01 causes concentration dependent release of potassium from indicator cells with 100% being released at the highest concentration of NI01 assessed (10×MIC).
In summary, mode of action studies, using DiSC3(5) [3,3′-Dipropylthiadicarbocyanine iodide] assays, indicate that NI01 depolarises the membrane (FIG. 12) of the a Staphylococcus epidermidis strain resulting in loss of potassium (FIG. 13) and ATP (FIG. 14).

pH stability = format: physicochemical
MRSA (EMRSA 15) = test: MIC by micro-dilution (BSAC); format: cell-based;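 further: MIC in µg/ml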
S. epidermidis s42 [6] = test: potassium release, K+ sensitive fluorescent dye PBFI; format: cell-based; details: highest concentration, 10×MIC
Source text: as §1

Enterococcus faecalis = test: MIC by micro-dilution (BSAC); format: cell-based
S. aureus 1195 = test: MIC by micro-dilution (BSAC); format: cell-based
S. warneri = test: MIC by micro-dilution (BSAC); format: cell-based
[7] = enzyme stability of the peptide (activity in AU/ml after enzyme treatment)
[8] = system: Staphylococcal isolates associated with joint or tissue infections; test: deferred antagonism method, inhibition of clinical Staphylococcal isolates; format: cell-based, Staphylococci; parameters: key to Inhibition caused by NI01: NI indicates no inhibition; 1+: on a score of 1-3; 2+: on a score of 1-3; 3+: on a score of 1-3
[9] = Strain 11, gentamicin and methicillin resistant clinical isolate
[10] = Strain 12, gentamicin resistant clinical isolate
[11] = following treatment with protease

Substance: peptide NI01: antimicrobial peptide (bacteriocin, SEQ ID NO:3) obtained from a Staphylococcal culture; C terminal sequence QSFEWIYKQIKKLWA (MAAFMKLIQFLATKGQKYVSLAWKHKGTILKWINAGQSFEWIYKQIKKLWA; NOI01 polypeptide)
- MIC (S. saprophyticus): 0.5 to 1 µg/mL
- stained cells per field of view (Gram stain) following addition of peptide (S. epidermidis 156; at least 150 small cocci per field prior to addition): less than 20 cells per field of view
- type of activity against the target bacterium (S. epidermidis 156; from cfu count and optical density): bactericidal, but non-lytic
- cfu count after addition of peptide (S. epidermidis 156; peptide added at T=30, decrease not as pronounced in optical density): rapid decrease
- MIC before passaging [1, 9]: 7800 µg/mL
- MIC after passaging [1, 9]: 15600 µg/mL
- MIC before passaging [1, 10]: 3900 µg/mL
- MIC after passaging [1, 10]: 7800 µg/mL
- change in MIC after passaging ([1]; all of the other strains tested (of twelve)): no change
- cells that looked apoptotic (vero cells): 10-20%
- damage to vero cells (vero cells): No significant damage
- MIC (S. epidermidis; S. epidermidis RP62a): 2 to 4 µg/mL
- MIC (S. epidermidis; S. epidermidis s1): 1 µg/mL
- MIC (S. epidermidis; S. epidermidis s2): 4 µg/mL
- MIC (S. epidermidis; S. epidermidis s37): 2 µg/mL
- MIC (S. epidermidis; S. epidermidis s42): 2 µg/mL
- MIC (S. epidermidis; S. epidermidis s44): 4 µg/mL
- MIC (S. epidermidis; S. epidermidis s60): 2 µg/mL
- MIC (S. epidermidis; S. epidermidis s93): 2 µg/mL
- MIC (S. epidermidis; S. epidermidis s156): 0.0625 µg/mL
- MIC (Bacillus subtillis): <0.125 µg/mL
- MIC (Listeria monocytogenes): <0.125 µg/mL
- mutation (single-step mutation tests) [2]: < 1.5×10^8 cfu/ml
- ATP released (S. epidermidis s42 [3]): > 65 % of positive control
- MIC ([4]; Vancomycin resistant Enterococcus faecalis 1): 1 µg/mL
- MIC ([4]; Vancomycin resistant Enterococcus faecalis 2): 1 µg/mL
- MIC ([4]; Vancomycin resistant Enterococcus faecalis 3): 1 µg/mL
- MIC ([4]; Vancomycin resistant Enterococcus faecalis 4): 1 to 2 µg/mL
- MIC ([4]; Vancomycin resistant Enterococcus faecalis 5): 0.5 to 1 µg/mL
- MIC ([4]; Vancomycin resistant Enterococcus faecalis 6): 0.5 µg/mL
- activity against Propionibacterium acnes (Propionibacterium acnes): activity
- reduction of biofilm on coated versus uncoated polyethylene beads (strain 156 biofilm): 2.85 log units
- MIC (Bacillus cereus): <0.125 µg/mL
- MIC (Streptococcus mutans; Streptococcus mutans 263): 2 µg/mL
- MIC (Streptococcus mutans; Streptococcus mutans 313): 0.12 µg/mL
- MIC (S. hominis): 1 µg/mL
- effect on membrane potential (S. epidermidis s42 [5]): rapidly depolarized the membrane
- activity lost (pH stability; acidic pH 2): about 5%
- activity lost (pH stability; alkaline pH 10): 12%
- activity retained (pH stability; between pH 4-8): 100%
- haemolysis (haemolysis): not haemolytic
- MIC (MRSA (EMRSA 15); MRSA s37 (EMRSA 15)): 1 to 2 µg/mL
- MIC (MRSA (EMRSA 15); MRSA s41 (EMRSA 15)): 1 to 2 µg/mL
- MIC (MRSA (EMRSA 15); MRSA s71 (EMRSA 15)): 2 µg/mL
- potassium release (S. epidermidis s42 [6]): 100 % of positive control
- MIC (Enterococcus faecalis): 1 µg/mL
- MIC (S. aureus 1195): 2 µg/mL
- MIC (S. warneri): 1 µg/mL
- activity after treatment [7, 11]: 160 AU/ml
- reduction in activity [7, 11]: 75%
- activity before enzyme treatment ([7]; partially purified peptide, starting activity): 640 AU/ml
- activity after treatment ([7]; treatment with trypsin): 320 AU/ml
- reduction of activity ([7]; treatment with trypsin): 50%
- Inhibition caused by NI01 ([8]; isolate 5133, Tissue (acetabulum), resistance: flu): 2+
- Inhibition caused by NI01 ([8]; isolate S1, Tissue, resistance: meth, pen, ery, amp, flu, gen, trim, cip): 2+
- Inhibition caused by NI01 ([8]; isolate S2, Joint fluid, resistance: pen, ery, amp, flu, gen, trim, cip): 2+
- Inhibition caused by NI01 ([8]; isolate S4, Tissue, resistance: meth, flu, gen, trim): 3+
- Inhibition caused by NI01 ([8]; isolate S5, Tissue, resistance: met): 3+
- Inhibition caused by NI01 ([8]; isolate S6, Femoral canal, resistance: flu, ery, gen, rif, cip): 1+
- Inhibition caused by NI01 ([8]; isolate S7, Femoral canal, sensitive): 1+
- Inhibition caused by NI01 ([8]; isolate S8, Tissue, resistance: flu, ery, gen, rif, cip): 1+
- Inhibition caused by NI01 ([8]; isolate S9, Tissue, resistance: flu, ery, gen, rif, cip): 3+
- Inhibition caused by NI01 ([8]; isolate S10, Tissue, resistance: flu, ery, gen, rif, cip): 1+
- Inhibition caused by NI01 ([8]; isolate S11, Tissue, resistance: flu, ery, gen, rif, cip): 2+
- Inhibition caused by NI01 ([8]; isolate S12, Tissue, resistance: flu, ery, rif, cip): 1+
- Inhibition caused by NI01 ([8]; isolate S13, Swab, resistance: flu, ery, gen, rif, cip): 1+
- Inhibition caused by NI01 ([8]; isolate S25, Swab (left hip joint), resistance: meth, gen): 2+
- Inhibition caused by NI01 ([8]; isolate S28, Tissue (femoral canal), resistance: meth, gen): 3+
- Inhibition caused by NI01 ([8]; isolate S30, Tissue (left capsule), resistance: meth): 3+
- Inhibition caused by NI01 ([8]; isolate S31, Swab (joint), sensitive): 2+
- Inhibition caused by NI01 ([8]; isolate S37, Tissue (knee), sensitive): 2+
- Inhibition caused by NI01 ([8]; isolate S39, Tissue (right knee), resistance: meth, flu, fus, cip): 1+
- Inhibition caused by NI01 ([8]; isolate S40, Tissue (right knee), resistance: meth, flu, ery, fus, clin, cip): 1+
- Inhibition caused by NI01 ([8]; isolate S41, Tissue (femoral canal), resistance: meth, flu, fus, cip): 1+
- Inhibition caused by NI01 ([8]; isolate S42, Tissue (right knee), resistance: meth, flu, fus, cip): NI
- Inhibition caused by NI01 ([8]; isolate S43, Swab (right hip joint), resistance: meth, flu, ery, fus, clin, cip): NI
- Inhibition caused by NI01 ([8]; isolate S44, Swab (right hip joint), resistance: meth, flu, ery): NI
- Inhibition caused by NI01 ([8]; isolate S46, Swab (right hip joint), resistance: meth, flu, gen, fus, cip): NI
- Inhibition caused by NI01 ([8]; isolate S47, Swab (tibia), resistance: meth, flu, ery, gen, fus, cip): NI
- Inhibition caused by NI01 ([8]; isolate S48, Tissue (left knee), resistance: meth, flu, ery, gen, fus, cip): 1+
- Inhibition caused by NI01 ([8]; isolate S49, Tissue (left knee), resistance: meth, flu, ery, gen, fus, cip): 2+
- Inhibition caused by NI01 ([8]; isolate S52, Tissue (right hip joint), resistance: gen, cip): 2+
- Inhibition caused by NI01 ([8]; isolate S53, Swab (femur), resistance: gen, cip, fus): 2+
- Inhibition caused by NI01 ([8]; isolate S56, Tissue (right hip joint), sensitive): 2+
- Inhibition caused by NI01 ([8]; isolate S60, Tissue (femur), resistance: gen, trim): NI
- Inhibition caused by NI01 ([8]; isolate S71, Swab (femur), resistance: flu): 2+
- Inhibition caused by NI01 ([8]; isolate S78, Tissue (right elbow), resistance: flu, ery): 1+
- Inhibition caused by NI01 ([8]; isolate S79, Pus (right elbow), resistance: meth, flu, ery): 1+
- Inhibition caused by NI01 ([8]; isolate S80, Tissue (triceps), resistance: flu, ery): 1+
- Inhibition caused by NI01 ([8]; isolate S81, Pus (right elbow), resistance: flu, ery): 1+
- Inhibition caused by NI01 ([8]; isolate S82, Tissue (right elbow), resistance: flu, ery): 1+
- Inhibition caused by NI01 ([8]; isolate S83, Tissue (next to bone), resistance: flu, ery): 1+
- Inhibition caused by NI01 ([8]; isolate S85, Tissue (left elbow), resistance: meth, ery): 1+
- Inhibition caused by NI01 ([8]; isolate S86, Swab (right elbow), sensitive): 2+
- Inhibition caused by NI01 ([8]; isolate S88, Swab (left hip), sensitive): 1+
- Inhibition caused by NI01 ([8]; isolate S89, Tissue (right elbow), resistance: meth, flu, ery): 1+
- Inhibition caused by NI01 ([8]; isolate S90, Ulcer, resistance: flu, ery): 2+
- Inhibition caused by NI01 ([8]; isolate S91, Swab (right acetabulum), resistance: flu): 2+
- Inhibition caused by NI01 ([8]; isolate S92, Swab (femur), resistance: flu): 1+
- Inhibition caused by NI01 ([8]; isolate S93, Tissue (wound), resistance: flu, ery, gen, fus): NI
- Inhibition caused by NI01 ([8]; isolate S94, Tissue (right femur), resistance: flu): 3+
- Inhibition caused by NI01 ([8]; isolate S95, Tissue (right femur), resistance: flu, trim): 3+
- Inhibition caused by NI01 ([8]; isolate S96, Tissue (right femur), resistance: flu): 1+
- Inhibition caused by NI01 ([8]; isolate S97, Tissue (acetabulum), resistance: flu): 3+
- Inhibition caused by NI01 ([8]; isolate S106, Neck of femur, resistance: ery, fus): 3+
- Inhibition caused by NI01 ([8]; isolate S127, Tissue (screw holes), resistance: flu): 1+
- Inhibition caused by NI01 ([8]; isolate S128, Tissue (under plate), resistance: meth, flu): 1+
- Inhibition caused by NI01 ([8]; isolate S156, Tissue (acetabulum), resistance: ery, fus): 3+
- Inhibition caused by NI01 ([8]; isolate S159, Swab (right thigh), resistance: meth, flu, ery): 1+
- Inhibition caused by NI01 ([8]; isolate S160, Swab (right hip), resistance: meth, flu, gen): 2+
- Inhibition caused by NI01 ([8]; isolate S161, Swab (right hip sinus), resistance: flu, ery, gen, fus, cip): 2+
- Inhibition caused by NI01 ([8]; isolate S163, Tissue (right hip), resistance: flu, ery, gen, fus, cip): 1+
- Inhibition caused by NI01 ([8]; isolate S164, Tissue (right hip), resistance: ery, fus, amp, clin): NI
- inhibitory effect, score ([8]; isolate Staphylococcus epidermis 156, biofilm forming, from infected acetabulum tissue, over a 100 hour period (FIG. 5)): +3
- clinical biofilm forming isolates of Staphylococci inhibited ([8]; isolates associated with joint and/or tissue infections, summary of Table 1): 58 out of the 60
- clinical biofilm forming isolates of Staphylococci inhibited, percent ([8]; summary of Table 1): 91%
